Measured values: the METLIN SMRT retention time set (Domingo-Almenara et al. 2019)

Test: gradient 5% acetonitrile 3 min, to 50% in 2 min, to 85% in 15 min, held 3 min, 100 µL/min
Conditions: column: Zorbax Extend-C18 2.1 x 50 mm; eluents: water / acetonitrile, 0.1% formic acid
How it was run: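 Mixtures of ~100 pure standards were chromatographed on a Zorbax Extend-C18 column (2.1 × 50 mm, 1.8 μm) at 100 μL/min using water and acetonitrile, each with 0.1% formic acid. Detection used a quadrupole time-of-flight mass spectrometer in positive and negative ionization mode, and data collection spanned 3 months. Retention time was obtained from adduct peaks picked computationally and each checked manually.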

| RP-LC retention time [s] | SMILES |
| --- | --- |
| 750 | CCCC(NC(=O)CCc1ccccc1OC)C(=O)Nc1nc2ccccc2[nH]1 (stereo unspecified) |
| 652 | COc1cccc(CNC(=O)Nc2c(-c3ccc(F)cc3)nc3ccccn23)c1 |
| 873 | O=C(Cn1nc2c3cc(-c4ccccc4)nn3ccn2c1=O)NC1CCCCC1 |
| 906 | COC(=O)CC(=O)Nc1ccc(-c2nc(-c3ccccc3)co2)cc1 |
| 644 | O=C(Cc1c[nH]c2ncccc12)NCC1CCCCC1 |
| 882 | O=c1cc(N2CCOCC2)oc2c1ccc1ccccc12 |
| 714 | Cc1ccccc1CNC(=O)c1ccc2c(c1)CC(=O)N2C |
| 806 | O=C(NC1CCN(c2cc(-c3ccc(F)cc3)[nH]n2)C1)c1cccc(Br)c1 (stereo unspecified) |
| 754 | COc1ccc(NC(=O)Cn2cnc(-c3ccc(F)cc3)cc2=O)c(OC)c1 |
| 1080 | C[n+]1ccc(Nc2ccc(NC(=O)c3ccc(Nc4cc[n+](C)c5ccc([N+](=O)[O-])cc45)cc3[N+](=O)[O-])cc2)cc1 |
| 1100 | CCCCc1ccc(NC(=O)Cn2nc3c(Sc4ccccc4)nccn3c2=O)cc1 |
| 1030 | O=C(Cn1cnc2c(-c3ccc(F)cc3)csc2c1=O)Nc1ccc(Br)cc1F |
| 834 | CC(C)N1C(=O)c2cccnc2Sc2cc(NC(=O)Cc3cccs3)ccc21 |
| 698 | COc1cccc(CNC(=O)Cc2csc3nc(-c4ccc(OC)c(OC)c4)cn23)c1 |
| 806 | CCNC(=O)c1cnn(-c2cc(-c3nc(CC)no3)ccn2)c1C |
| 755 | CCn1c(CCc2ccccc2NS(=O)(=O)c2ccc(F)cc2F)nc2ccccc21 |
| 595 | O=C(c1nc2ncccn2n1)N1CCCn2cc(-c3ccccc3)nc21 |

| RP-LC retention time [s] | SMILES |
| --- | --- |
| 827 | COC(=O)c1nc(NC(=O)Cn2nc3c(cc2=O)CCCC3)sc1-c1ccccc1 |
| 612 | CCn1c(=O)c(SCC(=O)N2CCN(c3ccccn3)CC2)nc2ccccc21 |
| 913 | CCOc1ccc(NC(=O)Nc2nccn(-c3ccccc3)c2=O)cc1 |
| 784 | Cn1ncc2c3ccccc3n(CC(=O)NCCc3cccs3)c2c1=O |
| 706 | Cn1cc(CC(=O)NCc2ccccc2Cl)c2cccnc21 |
| 979 | COc1ccccc1NS(=O)(=O)c1cn(CC(C)C)c2ncccc12 |
| 812 | CCn1c(CCC(=O)NCc2ccc(Cl)cc2)nc2ccccc2c1=O |
| 905 | O=C(Cc1cccs1)Nc1cccc(OCc2nnc(-c3ccccc3)o2)c1 |
| 921 | COC(=O)c1ccccc1Nc1c(-c2ccc(N(C)C)cc2)nc2cnccn12 |
| 741 | O=C(NCCc1c[nH]c2ccccc12)c1cc(-c2cccnc2)nc2ccccc12 |
| 965 | Cn1c(=O)c(N2CCC(NC(=O)Nc3cccc(Br)c3)CC2)nc2ccccc21 |
| 808 | O=C1NCCCn2cc(S(=O)(=O)N(Cc3ccccc3)c3ccccc3)cc21 |
| 626 | CC(C)n1cnnc1C1CCN(C(=O)Cc2c[nH]c3ccccc23)CC1 |
| 810 | Cc1ccc(Nc2c(-c3ccc(Cl)cc3)nc3cccc(C)n23)cc1 |
| 1110 | Cc1ccccc1-c1noc(Cn2c(=O)n(Cc3ccc4c(c3)OCO4)c(=O)c3sccc32)n1 |
| 936 | O=C(NCc1ccccc1Cl)C(=O)c1c[nH]c2ccccc12 |

Continued, molecule first:

| SMILES | RP-LC retention time [s] |
| --- | --- |
| Cc1ccc(Oc2nccnc2N2CCCC(C(=O)Nc3ccc(Br)c(C)c3)C2)cc1 (stereo unspecified) | 1290 |
| COc1ccccc1N1CCN(c2cc(SCC(=O)Nc3ccc4c(c3)OCO4)ncn2)CC1 | 900 |
| O=C(Nc1cnc(-c2ccccc2)nc1)C1CCCC1 | 936 |
| CSc1nnc(-c2nn(C)c3c2CN(C(=O)c2ccc(F)cc2)CC3)n1C | 656 |
| CC1Oc2ccc(-c3csc(NS(C)(=O)=O)n3)cc2NC1=O (stereo unspecified) | 609 |
| CCCNS(=O)(=O)c1cc2n(c1)CCCN(CC)C2=O | 642 |
| Cn1c(=O)n(CC(=O)NC2CCCCC2)c(=O)c2cnc(-c3ccc(Cl)cc3)nc21 | 1070 |
| COc1ccc(OC)c(CNC(=O)c2[nH]c(C)c(S(=O)(=O)N3CCCC3)c2C)c1 | 822 |
| CCn1c(=O)c(=O)n(CC(=O)NC2CCCCCCC2)c2cccnc21 | 806 |
| CCCNC(=O)C1=Cc2cc(Br)ccc2OC=C1 | 944 |
| Cn1nc(-c2nc(C3CC3)no2)c2c1CCN(C(=O)c1ccc(Cl)s1)C2 | 928 |
| O=C1NC2(CCN(C(=O)c3cccc(F)c3)CC2)N=C1c1cccc(F)c1 | 821 |
| Cc1ccc(CN2C(=O)NC3(CCCN(C(=O)c4ccc5c(c4)OCO5)C3)C2=O)cc1 (stereo unspecified) | 819 |
| COc1ccc(CNC(=O)c2cn(C)nc2S(=O)(=O)N2CCSCC2)c(OC)c1 | 855 |
| Cc1nn(C)cc1S(=O)(=O)Nc1c(C)n(C)n(-c2ccccc2)c1=O | 722 |
| CCOC(=O)c1c(C)n(-c2ccc(OC)cc2)c2ccc(OCC(N)=O)cc12 | 909 |
| CC(C)(C)C(O)CCNC(=O)Cc1cccs1 (stereo unspecified) | 673 |
| CCCc1cc(N2CCN(C(=O)c3ccncc3)CC2)nc2nnc(CC)n12 | 580 |
| CC(C)NC(=O)c1cn2c(n1)CCCC2 | 545 |
| O=C(Nc1ncnc2sccc12)C1COc2ccccc2O1 (stereo unspecified) | 718 |

| SMILES | RP-LC retention time [s] |
| --- | --- |
| Cc1ccc2c(Nc3ccc(C)c(Cl)c3)c(C(=O)N3CCOCC3)cnc2n1 | 610 |
| Cc1ccc(NC(=O)Cn2c(C)nc3onc(C)c3c2=O)c(C)c1 | 800 |
| COc1ccc(Cc2nc(Cn3ccnc3)no2)cc1OC | 592 |
| CCOc1ccc(NC(=O)Cn2nc3n(c2=O)CCCC3)cc1 | 655 |
| COC1CCC12CCN(Cc1ccccn1)CC2 (stereo unspecified) | 571 |
| Cn1nc(-c2nc(C3CC3)no2)c2c1CCN(C(=O)c1ccco1)C2 | 744 |
| Cc1cc(Cl)cc2sc(N(Cc3ccccn3)C(=O)CN(C)S(C)(=O)=O)nc12 | 1080 |
| O=C(Nc1ccccc1C(F)(F)F)N1CCC(n2cnc3cccnc32)CC1 | 657 |
| CN(C)c1ccc(C(=O)Nc2cnc(N3CCOCC3)nc2)cc1 | 729 |
| COC(=O)c1cc(S(=O)(=O)N2CCCC2C(=O)N2CCC(C)CC2)cn1C (stereo unspecified) | 770 |
| Cc1ccccc1OCc1nc(CCN(C)C(=O)CC2CCCC2)no1 | 1020 |
| COc1ccc(C(=O)N2CCn3c(C)nnc3C2)cc1F | 593 |
| CC1CCN(S(=O)(=O)N2CCC(C(=O)N3CCCC(Cc4nncn4CC4CC4)C3)CC2)CC1 (stereo unspecified) | 678 |
| CCOC(=O)c1cccc(Nc2c(C(=O)N3CCCCC3C)cnc3nc(C)ccc23)c1 (stereo unspecified) | 666 |
| COc1ccc(C)cc1NC(=O)N1CC(c2nc(C)no2)C2(CCOCC2)C1 (stereo unspecified) | 753 |
| CCOC(=O)c1noc2ncnc(NCC3CCN(Cc4ccccc4F)CC3)c12 | 661 |
| CS(=O)(=O)N1CC(C(=O)Nc2ccc3c(c2)OCCO3)C2(CCCCC2)C1 (stereo unspecified) | 847 |
| Cc1cnc(C(=O)N2CCC(c3noc(-c4cnccn4)n3)C2)cn1 (stereo unspecified) | 630 |
| CC(C)N1CCc2c(sc(NC(=O)COc3ccc(Cl)cc3Cl)c2C(N)=O)C1 | 598 |
| Cc1c(C)n(C)c2ccc(C(=O)NCC(C)C)cc12 | 909 |

| SMILES | RP-LC retention time [s] |
| --- | --- |
| COc1ccc(/C=C/c2nn3c(COc4ccc(OC)cc4)nnc3s2)cc1 | 973 |
| COc1cc(OC)cc(C(=O)N2CCC3(CC2)NC(=O)c2cc(Cl)ccc2N3C)c1 | 826 |
| COC(=O)c1ncn2c1C(=O)N(Cc1ccc(C)cc1)C(C)(C(=O)NCc1ccc(C)cc1)C2 (stereo unspecified) | 788 |
| O=C(c1ccco1)N1CCC(Cc2noc(C3CC3)n2)C1 (stereo unspecified) | 709 |
| Cn1c(=O)c(N2CCCC(C(=O)NCc3ccco3)C2)nc2cccnc21 (stereo unspecified) | 788 |
| COc1ccc2c(c1)CCN(C(=O)c1csc(-n3cccc3)n1)C2 | 895 |
| CN(C)c1ccc(O)c2c1C[C@H]1C[C@H]3[C@H](N(C)C)C(=O)C(C(N)=O)=C(O)[C@@]3(O)C(=O)C1=C2O | 596 |
| CCc1c(C(=O)O)nnn1-c1ccc(C)cc1F | 737 |
| O=c1n(Cc2ccccc2Cl)nc2ccc(S(=O)(=O)N3CCCCCC3)cn12 | 1000 |
| O=C(Cn1nc(C(=O)N2CCOCC2)c2ccccc21)Nc1ccc(F)cc1F | 732 |
| CCCCCCC(=O)OC1CC(C)(C)NC(C)(C)C1 | 707 |
| Cc1nc2cc(N3CCC(C(=O)Nc4ccc(N5CCOCC5)cc4)CC3)cnc2nc1C | 649 |
| CCCNC(=O)C1CCCN(c2ccc(SCC(=O)Nc3ccc(CC)cc3)nn2)C1 (stereo unspecified) | 656 |
| CCn1c(CNC(=O)C2CCC2)nc2c1CN(C(=O)c1ccc(OC)cc1)CC2 | 612 |
| O=C(Nc1ccc2c(c1)OCCO2)C1CCN(c2cnc3nccnc3c2)CC1 | 666 |
| Cc1cccc(C(=O)N2CCC3(C2)C(=O)N(C)c2ccccc23)c1 (stereo unspecified) | 794 |
| CCN1CCCn2cc(S(=O)(=O)N3CCN(c4ccccc4)CC3)cc2C1=O | 813 |
| CC1(C(=O)NC2CCCCCCC2)CN(S(C)(=O)=O)CC(=O)N1c1ccc(F)cc1F (stereo unspecified) | 952 |
